Laboratory results as given in patent publication US20130065964A1, “PERITONEAL DIALYSIS SOLUTION” (UNIVERSIDAD DE CASTILLA LA MANCHA, priority 2010, published 2013).

What was measured:
[1] = system: fibronectin; assay: Real-time RT-PCR in cultured PMCs exposed to PDF; assay type: cell-based; conditions: rat PMCs, 1.5% PDF diluted 1:1 in culture medium, 24 hours, aliskiren 10-100 μM, FIG. 11
Description: (§1) After incubating the rat PMCs in 1.5% PDF diluted 1:1 in culture medium for 24 hours, in the presence or absence of carrier or different concentrations of aliskiren (10-100 μM), total RNA was isolated and real-time RT-PCR was carried out as described in Material and Methods. The data is expressed as mean±SEM, n=3. * p<0.05 compared to untreated cells (control). # p<0.05, compared to cells treated with 1.5% PDF in the presence of carrier (0).
(§2) Rat peritoneal mesothelial cells were isolated by enzymatic digestion in accordance with protocols described in Hjelle J T, Golinska B T, Waters D C, et al. Perit Dial Int 1989; 9: 341-7. […]
(§3) The RNA expression was evaluated by real-time RT-PCR in PMCs. […] RNA quality and concentration was evaluated by spectrophotometry (Infinite 200, Tecan, Salzburg, Austria) using 1 μl of the RNA sample. […] The dissociation curves were analysed to confirm the amplification of a single PCR product. […] In each experiment, the mean cycle threshold (CT) was calculated from triplicates for each of the genes studied, enabling comparison of the gene expression after different treatments (Methods 25, 402-408 (2001). In order to normalize the data, the gene expression of β-actin was used as endogenous control.

[2] = system: Collagen I; assay: Real-time RT-PCR in cultured PMCs exposed to PDF; assay type: cell-based; conditions: rat PMCs, 1.5% PDF diluted 1:1 in culture medium, 24 hours, aliskiren 10-100 μM, FIG. 9
Description: as §1, §2, §3

## COCCCOc1cc(C[C@@H](C[C@H](N)[C@@H](O)C[C@H](C(=O)NCC(C)(C)C(N)=O)C(C)C)C(C)C)ccc1OC [aliskiren]
[1]
  RNAm levels for fibronectin: lowered
[2]
  RNAm levels for collagen I: lowered
